The structures appear in SMILES notation.

The assay addresses T1, human GABA A receptor α5β3γ2 (Homo sapiens, UniProt P18507+P31644).
T1 construct: expressed in transfected cells; host or cells: HEK293 cells, transiently transfected; membranes prepared from them
In words: [3H]flumazenil competition binding, HEK293 cells expressing human GABA A α5β3γ2 receptors. Conditions: human α5β3γ2 in HEK293 (transiently transfected), 0.5 nM [3H]flumazenil, mean of two determinations; read-out: Ki[nM] hα5. As to the method:
Membrane Preparation and Binding Assay
The affinity of compounds at GABA A receptor subtypes was measured by competition for [3H]flumazenil (85 Ci/mmol; Roche) binding to HEK293 cells expressing rat (stably transfected) or human (transiently transfected) receptors of composition α1β3γ2, α2β3γ2, α3β3γ2 and α5β3γ2.
Cell pellets were suspended in Krebs-tris buffer (4.8 mM KCl, 1.2 mM CaCl2, 1.2 mM MgCl2, 120 mM NaCl, 15 mM Tris; pH 7.5; binding assay buffer), homogenized by polytron for ca. 20 sec on ice and centrifuged for 60 min at 4° C. (50000 g; Sorvall, rotor: SM24=20000 rpm). The cell pellets were resuspended in Krebs-tris buffer and homogenized by polytron for ca. 15 sec on ice. Protein was measured (Bradford method, Bio-Rad) and aliquots of 1 mL were prepared and stored at −80° C.
Radioligand binding assays were carried out in a volume of […] (96-well plates) which contained […] of cell memebranes, [3H]flumazenil at a concentration of 1 nM for α1, α2, α3 subunits and 0.5 nM for α5 subunits and the test compound in the range of […]. Nonspecific binding was defined by 10^−5 M diazepam and typically represented less than 5% of the total binding. Assays were incubated to equilibrium for 1 hour at 4° C. and harvested onto GF/C uni-filters (Packard) by filtration using a Packard harvester and washing with ice-cold wash buffer (50 mM Tris; pH 7.5). After drying, filter-retained radioactivity was detected by liquid scintillation counting. Ki values were calculated using Excel-Fit (Microsoft) and are the means of two determinations.

Take `Cc1onc(-c2ccccc2)c1C(=O)c1cc2ccccc2o1` [Example 1, Benzofuran-2-yl-(5-methyl-3-phenyl-isoxazol-4-yl)-methanone]: the Ki came to 15.2 nM.

As for `Cc1onc(-c2ccccc2)c1C(=O)c1cc2cccc(F)c2o1` [Example 2, (7-Fluoro-benzofuran-2-yl)-(5-methyl-3-phenyl-isoxazol-4-yl)-methanone], the Ki was determined as 17.8 nM.

For the molecule `Cc1onc(-c2ccccc2)c1C(=O)c1cc2cccc(Br)c2o1` [Example 3, (7-Bromo-benzofuran-2-yl)-(5-methyl-3-phenyl-isoxazol-4-yl)-methanone], the Ki turned out to be 7.5 nM.

`Cc1onc(-c2ccccc2)c1C(=O)c1cc2cccc(O)c2o1` [Example 4, (7-Hydroxy-2-benzofuranyl)(5-methyl-3-phenyl-4-isoxazolyl)methanone]: the Ki was 6.9 nM.

`COc1cccc2cc(C(=O)c3c(-c4ccccc4)noc3C)oc12` [Example 5, (7-Methoxy-benzofuran-2-yl)-(5-methyl-3-phenyl-isoxazol-4-yl)-methanone]: the Ki came to 4 nM.

With `CCOc1cccc2cc(C(=O)c3c(-c4ccccc4)noc3C)oc12` [Example 6, (7-Ethoxy-benzofuran-2-yl)-(5-methyl-3-phenyl-isoxazol-4-yl)-methanone], the Ki is 6.5 nM.

As to `Cc1onc(-c2ccccc2)c1C(=O)c1cc2cccc(OCc3ccccn3)c2o1` [Example 8, (5-Methyl-3-phenyl-isoxazol-4-yl)-[7-(pyridin-2-ylmethoxy)-benzofuran-2-yl]-methanone], the Ki worked out at 16.7 nM.

As to `Cc1onc(-c2ccccc2)c1C(=O)c1cc2cccc(OCc3cccnc3)c2o1` [Example 9, (5-Methyl-3-phenyl-isoxazol-4-yl)-[7-(pyridin-3-ylmethoxy)-benzofuran-2-yl]-methanone], the Ki turned out to be 31.3 nM.

As for `Cc1onc(-c2ccccc2)c1C(=O)c1cc2cccc(OCc3ccncc3)c2o1` [Example 10, (5-Methyl-3-phenyl-isoxazol-4-yl)-[7-(pyridin-4-ylmethoxy)-benzofuran-2-yl]-methanone], the Ki stood at 27.9 nM.

For `Cc1onc(-c2ccccc2)c1C(=O)c1cc2cccc(OCC(=O)NC(C)C)c2o1` [Example 13, N-Isopropyl-2-[2-(5-methyl-3-phenyl-isoxazole-4-carbonyl)-benzofuran-7-yloxy]-acetamide], the Ki turned out to be 1.8 nM.

As for `Cc1onc(-c2ccccc2)c1C(=O)c1cc2cccc(OCc3ncnn3C)c2o1` [Example 14, (5-Methyl-3-phenyl-isoxazol-4-yl)-[7-(2-methyl-2H-[1,2,4]triazol-3-ylmethoxy)-benzofuran-2-yl]-methanone], the Ki came to 13.8 nM.

For the molecule `Cc1cc(COc2cccc3cc(C(=O)c4c(-c5ccccc5)noc4C)oc23)on1` [Example 15, [7-(3-Methyl-isoxazol-5-ylmethoxy)-benzofuran-2-yl]-(5-methyl-3-phenyl-isoxazol-4-yl)-methanone], the Ki is 18.9 nM.

As to `Cc1onc(-c2ccccc2)c1C(=O)c1cc2ccc(O)cc2o1` [Example 16, (6-Hydroxy-benzofuran-2-yl)-(5-methyl-3-phenyl-isoxazol-4-yl)-methanone], the Ki came out at 3.7 nM.

Consider `COc1ccc2cc(C(=O)c3c(-c4ccccc4)noc3C)oc2c1` [Example 17, (6-Methoxy-benzofuran-2-yl)-(5-methyl-3-phenyl-isoxazol-4-yl)-methanone], for which the Ki came to 3.5 nM.

For the molecule `Cc1onc(-c2ccccc2)c1C(=O)c1cc2cc(Cl)ccc2o1` [Example 19, (5-Chloro-benzofuran-2-yl)-(5-methyl-3-phenyl-isoxazol-4-yl)-methanone], the Ki stood at 20 nM.

As for `Cc1onc(-c2ccccc2)c1C(=O)c1cc2cc(Br)ccc2o1` [Example 20, (5-Bromo-benzofuran-2-yl)-(5-methyl-3-phenyl-isoxazol-4-yl)-methanone], the Ki turned out to be 41.6 nM.

Take `COc1ccc2oc(C(=O)c3c(-c4ccccc4)noc3C)cc2c1` [Example 22, (5-Methoxy-benzofuran-2-yl)-(5-methyl-3-phenyl-isoxazol-4-yl)-methanone]: the Ki amounted to 4.6 nM.

In the case of `Cc1onc(-c2ccccc2)c1C(=O)c1cc2cc(OC(F)(F)F)ccc2o1` [Example 23, (5-Methyl-3-phenyl-isoxazol-4-yl)-(5-trifluoromethoxy-benzofuran-2-yl)-methanone], the Ki was 10.1 nM.

As to `COc1cccc2oc(C(=O)c3c(-c4ccccc4)noc3C)cc12` [Example 25, (4-Methoxy-benzofuran-2-yl)-(5-methyl-3-phenyl-isoxazol-4-yl)-methanone], the Ki came to 10.6 nM.

On to `COc1cc(OC)c2cc(C(=O)c3c(-c4ccccc4)noc3C)oc2c1` [Example 26, (4,6-Dimethoxy-benzofuran-2-yl)-(5-methyl-3-phenyl-isoxazol-4-yl)-methanone], for which the Ki was determined as 4.3 nM.

In the case of `Cc1onc(-c2ccccc2)c1C(=O)c1cc2c(ccc3ccccc32)o1` [Example 27, (5-Methyl-3-phenyl-isoxazol-4-yl)-naphtho[2,1-b]furan-2-yl-methanone], the Ki is 13.7 nM.

In the case of `Cc1onc(-c2ccc(Br)cc2)c1C(=O)c1cc2ccccc2o1` [Example 28, Benzofuran-2-yl-[3-(4-bromo-phenyl)-5-methyl-isoxazol-4-yl]-methanone], the Ki worked out at 8.1 nM.

On to `Cc1onc(-c2ccc(Br)cc2)c1C(=O)c1cc2cccc(F)c2o1` [Example 29, [3-(4-Bromo-phenyl)-5-methyl-isoxazol-4-yl]-(7-fluoro-benzofuran-2-yl)-methanone], for which the Ki was found to be 11.7 nM.

As for `Cc1onc(-c2ccc(Br)cc2)c1C(=O)c1cc2cccc(O)c2o1` [Example 30, [3-(4-Bromo-phenyl)-5-methyl-isoxazol-4-yl]-(7-hydroxy-benzofuran-2-yl)-methanone], the Ki was 17.4 nM.

For `COc1cccc2cc(C(=O)c3c(-c4ccc(Br)cc4)noc3C)oc12` [Example 31, [3-(4-Bromo-phenyl)-5-methyl-isoxazol-4-yl]-(7-methoxy-benzofuran-2-yl)-methanone], the Ki was determined as 3.7 nM.

As for `CCOc1cccc2cc(C(=O)c3c(-c4ccc(Br)cc4)noc3C)oc12` [Example 32, [3-(4-Bromo-phenyl)-5-methyl-isoxazol-4-yl]-(7-ethoxy-benzofuran-2-yl)-methanone], the Ki amounted to 9.4 nM.

On to `Cc1onc(-c2ccc(Br)cc2)c1C(=O)c1cc2cccc(OC(C)C)c2o1` [Example 33, [3-(4-Bromo-phenyl)-5-methyl-isoxazol-4-yl]-(7-isopropoxy-benzofuran-2-yl)-methanone], for which the Ki was 32.9 nM.

Regarding `Cc1onc(-c2ccc(Br)cc2)c1C(=O)c1cc2cccc(OCc3ccccn3)c2o1` [Example 34, [3-(4-Bromo-phenyl)-5-methyl-isoxazol-4-yl]-[7-(pyridin-2-ylmethoxy)-benzofuran-2-yl]-methanone], the Ki was found to be 36.3 nM.

On to `Cc1onc(-c2ccc(Br)cc2)c1C(=O)c1cc2cccc(OCc3cccnc3)c2o1` [Example 35, [3-(4-Bromo-phenyl)-5-methyl-isoxazol-4-yl]-[7-(pyridin-3-ylmethoxy)-benzofuran-2-yl]-methanone], for which the Ki is 36.4 nM.

In the case of `Cc1onc(-c2ccc(Br)cc2)c1C(=O)c1cc2cccc(OCc3ccncc3)c2o1` [Example 36, [3-(4-Bromo-phenyl)-5-methyl-isoxazol-4-yl]-[7-(pyridin-4-ylmethoxy)-benzofuran-2-yl]-methanone], the Ki amounted to 35.9 nM.

Consider `Cc1onc(-c2ccc(Br)cc2)c1C(=O)c1cc2cccc(OCC(=O)NC(C)C)c2o1` [Example 37, 2-{2-[3-(4-Bromo-phenyl)-5-methyl-isoxazole-4-carbonyl]-benzofuran-7-yloxy}-N-isopropyl-acetamide], for which the Ki turned out to be 2.3 nM.

Consider `Cc1onc(-c2ccc(Br)cc2)c1C(=O)c1cc2cccc(OCc3ncnn3C)c2o1` [Example 38, [3-(4-Bromo-phenyl)-5-methyl-isoxazol-4-yl]-[7-(2-methyl-2H-[1,2,4]triazol-3-ylmethoxy)-benzofuran-2-yl]-methanone], for which the Ki was found to be 15.1 nM.

As to `Cc1cc(COc2cccc3cc(C(=O)c4c(-c5ccc(Br)cc5)noc4C)oc23)on1` [Example 39, [3-(4-Bromo-phenyl)-5-methyl-isoxazol-4-yl]-[7-(3-methyl-isoxazol-5-ylmethoxy)-benzofuran-2-yl]-methanone], the Ki was determined as 63.8 nM.

Turning to `Cc1onc(-c2ccc(Br)cc2)c1C(=O)c1cc2ccc(O)cc2o1` [Example 40, [3-(4-Bromo-phenyl)-5-methyl-isoxazol-4-yl]-(6-hydroxy-benzofuran-2-yl)-methanone], the Ki is 9.3 nM.

Take `COc1ccc2cc(C(=O)c3c(-c4ccc(Br)cc4)noc3C)oc2c1` [Example 41, [3-(4-Bromo-phenyl)-5-methyl-isoxazol-4-yl]-(6-methoxy-benzofuran-2-yl)-methanone]: the Ki was found to be 3.1 nM.

As to `Cc1onc(-c2ccc(Br)cc2)c1C(=O)c1cc2cc(O)ccc2o1` [Example 42, [3-(4-Bromo-phenyl)-5-methyl-isoxazol-4-yl]-(5-hydroxy-benzofuran-2-yl)-methanone], the Ki is 4.6 nM.

In general, Ki refers to a measure of affinity in units of concentration, obtained from inhibition or displacement.
